PMC8812798 (Emerging Microbes & Infections, 2021)
Like-named read-outs stand apart in the source and are kept apart here. Where a SMILES comes first, the peptide text is derived from it. The star is where a group is joined. Succinyl(4-O-cholesteryl) = CC(C)CCC[C@@H](C)[C@H]1CC[C@H]2[C@@H]3CC=C4C[C@@H](OC(=O)CCC(=O)*)CC[C@]4(C)[C@H]3CC[C@]12C

Legend:
SARS-CoV-2 = test: Inhibition of SARS-CoV-2 by HIV-1 fusion inhibitors (Table S1); assay type: cell-based; settings: at a concentration as high as 25 or 50 μM (Table S1)
HIV-1 = test: Inhibition of HIV-1 by HIV-1 fusion inhibitors (Table S1); assay type: cell-based; settings: Table S1, in words only
SIVPBJ pseudovirus = settings: 48 h
SIV239 pseudovirus = settings: 48 h
RSV pseudovirus = settings: 48 h
H5N1 pseudovirus = settings: 48 h
primary HIV-1 Envs = test: DSP-based cell–cell fusion assay, panel of primary HIV-1 Envs
H7N9 pseudovirus = settings: 48 h
HIV-2ST = settings: read-out: IC50, inhibition of HIV-2ST infection; Fig 2B; replication-competent virus, TZM-bl cells, 48 h; mean IC50, repeated three times
HIV-1NL4-3 Env = assay type: cell-based; settings: Table 2; HIV-1NL4-3 Env-mediated cell–cell fusion; triplicate, repeated three times; read-out: IC50 ± SD, Env cell fusion
HIV-2ROD = settings: read-out: IC50, inhibition of HIV-2ROD infection; Fig 2A; replication-competent virus, TZM-bl cells, 48 h; mean IC50, repeated three times
[1] = test system: gp41 HR1-derived peptides (N42, N36, and N38); test: Size-exclusion chromatography of EK1 with gp41 HR1-derived peptides; assay type: binding, HIV-1; settings: molar ratio 1:1, 0.2 mM, 0.05M sodium phosphate pH 7.2, 37°C 30 min; Superdex-75
Experimental: The binding between EK1 peptide and a target mimic peptide derived from the HR1 sequence of gp41 was analysed by size-exclusion chromatography. In brief, EK1 was mixed with N42, N36 or N38 (molar ratio of 1:1) in 0.05M sodium phosphate (pH 7.2) at a final concentration of 0.2 mM, and then incubated at 37°C for 30 min. The mixture was applied to the Superdex-75 10/300 GL (GE Healthcare, Piscataway, NJ, USA) equilibrated with 50 mM sodium phosphate and eluted at 0.8 ml/min, and fractions were monitored at 214 nm.

[2] = HIV-1 Env 246_F3_C10_2, subtype A/C, triplicate, repeated three times, read-out: Cell fusion (IC50±SD)
[3] = HIV-1 Env 398-F1_F6_20, subtype A, triplicate, repeated three times, read-out: Cell fusion (IC50±SD)
[4] = HIV-1 Env BJOX002000.03.2, subtype B/C, triplicate, repeated three times, read-out: Cell fusion (IC50±SD)
[5] = HIV-1 Env CE1176_A3, subtype C, triplicate, repeated three times, read-out: Cell fusion (IC50±SD)
[6] = HIV-1 Env CE703010217_B6, subtype C, triplicate, repeated three times, read-out: Cell fusion (IC50±SD)
[7] = HIV-1 Env CH119.10, subtype B/C, triplicate, repeated three times, read-out: Cell fusion (IC50±SD)
[8] = HIV-1 Env CNE8, subtype A/E, triplicate, repeated three times, read-out: Cell fusion (IC50±SD)
[9] = HIV-1 Env CNE55, subtype A/E, triplicate, repeated three times, read-out: Cell fusion (IC50±SD)
[10] = HIV-1 Env HIV_25710-2.43, subtype C, triplicate, repeated three times, read-out: Cell fusion (IC50±SD)
[11] = HIV-1 Env SF162, subtype B, triplicate, repeated three times, read-out: Cell fusion (IC50±SD)
[12] = HIV-1 Env TRO.11, subtype B, triplicate, repeated three times, read-out: Cell fusion (IC50±SD)
[13] = HIV-1 Env X1632-S2-B10, subtype G, triplicate, repeated three times, read-out: Cell fusion (IC50±SD)
[14] = HIV-1 Env X2278_C2_B6, subtype B, triplicate, repeated three times, read-out: Cell fusion (IC50±SD)
[15] = Mean over 14 primary HIV-1 Envs of Table 1, read-out: Cell fusion, mean IC50 over the panel

| Molecule | Inhibitory activity against SARS-CoV-2 (SARS-CoV-2) | Inhibition of HIV-1 (HIV-1) | IC50 (SIVPBJ pseudovirus) [nM] | IC50 (SIV239 pseudovirus) [nM] | IC50 (RSV pseudovirus) [nM] | Cytotoxicity on HEK293T cells (HEK293T cells) | IC50 (H5N1 pseudovirus) [nM] | Cytotoxicity on TZM-bl cells (TZM-bl cells) | IC50 (primary HIV-1 Envs; [2]) [nM] | IC50 (primary HIV-1 Envs; [3]) [nM] | IC50 (primary HIV-1 Envs; [4]) [nM] | IC50 (primary HIV-1 Envs; [5]) [nM] | IC50 (primary HIV-1 Envs; [6]) [nM] | IC50 (primary HIV-1 Envs; [7]) [nM] | IC50 (primary HIV-1 Envs; [8]) [nM] | IC50 (primary HIV-1 Envs; [9]) [nM] | IC50 (primary HIV-1 Envs; [10]) [nM] | IC50 (primary HIV-1 Envs; [11]) [nM] | IC50 (primary HIV-1 Envs; [12]) [nM] | IC50 (primary HIV-1 Envs; [13]) [nM] | further results |
| --- | --- | --- | --- | --- | --- | --- | --- | --- | --- | --- | --- | --- | --- | --- | --- | --- | --- | --- | --- | --- | --- |
| sifuvirtide | none was found to have inhibitory activity | potently inhibited HIV-1 | – | – | – | – | – | – | – | – | – | – | – | – | – | – | – | – | – | – | – |
| Enfuvirtide | none was found to have inhibitory activity | potently inhibited HIV-1 | 480 | 390 | – | – | – | – | – | – | – | – | – | – | – | – | – | – | – | – | – |
| CC[C@H](C)[C@H](NC(=O)[C@H](C)NC(=O)[C@H](CCC(=O)O)NC(=O)[C@H](CCC(=O)O)NC(=O)[C@H](CC(C)C)NC(=O)[C@H](CCCCN)NC(=O)[C@H](CCCCN)NC(=O)[C@H](CCSC)NC(=O)[C@H](CCC(=O)O)NC(=O)[C@H](Cc1ccc(O)cc1)NC(=O)[C@H](CCC(=O)O)NC(=O)[C@H](CC(C)C)NC(=O)[C@H](CC(=O)O)NC(=O)[C@H](CC(C)C)NC(=O)[C@H](Cc1ccccc1)NC(=O)[C@@H](NC(=O)[C@@H](NC(=O)[C@H](CC(N)=O)NC(=O)[C@@H](NC(=O)[C@H](CCC(N)=O)NC(=O)[C@H](CC(=O)O)NC(=O)[C@H](CC(C)C)NC(=O)[C@H](CO)NC(C)=O)[C@@H](C)CC)C(C)C)[C@@H](C)O)C(=O)N[C@@H](CCCCN)C(=O)N[C@@H](CCCCN)C(=O)N[C@@H](CC(C)C)C(=O)N[C@@H](CCC(=O)O)C(=O)N[C@@H](CCC(=O)O)C(=O)N[C@@H](CO)C(=O)N[C@@H](Cc1ccc(O)cc1)C(=O)N[C@H](C(=O)N[C@@H](CC(=O)O)C(=O)N[C@@H](CC(C)C)C(=O)N[C@@H](CCCCN)C(=O)N[C@@H](CCC(=O)O)C(=O)N[C@@H](CC(C)C)C(=O)N[C@@H](CCCCNC(=O)CCC(=O)O[C@H]1CC[C@@]2(C)C(=CC[C@H]3[C@@H]4CC[C@H]([C@H](C)CCCC(C)C)[C@@]4(C)CC[C@@H]32)C1)C(N)=O)[C@@H](C)CC [EK1V1] (Ac-SLDQINVTFLDLEYEMKKLEEAIKKLEESYIDLKELK(Succinyl(4-O-cholesteryl))-NH2; N-terminus and C-terminus assumed) | – | – | 310 | 1430 | > 25000 | none of them at a concentration of 10 or 25 μM showed significant cytotoxic effects | > 25000 | none of them at a concentration of 10 or 25 μM showed significant cytotoxic effects | 50 ± 10 | 170 ± 10 | 70 ± 10 | 350 ± 100 | 40 ± 10 | 20 ± 4 | 490 ± 90 | 130 ± 30 | 170 ± 30 | 50 ± 10 | 680 ± 170 | 40 ± 10 | n-fold (HIV-1NL4-3 pseudovirus): 1; IC50 (HIV-1NL4-3 pseudovirus; 1NL4-3 pseudovirus, 48 h): 39.8 nM; IC50 (HIV-1NL4-3 pseudovirus; Table 3, […], mean ± SD, triplicate, repeated three times): 40 ± 2 nM; IC50 (primary HIV-1 Envs; [14]): 50 ± 4 nM; IC50 (primary HIV-1 Envs; [15]): 170 nM; IC50 (H7N9 pseudovirus): > 25000 nM |
| CC[C@H](C)[C@H](NC(=O)[C@H](C)NC(=O)[C@H](CCC(=O)O)NC(=O)[C@H](CCC(=O)O)NC(=O)[C@H](CC(C)C)NC(=O)[C@H](CCCCN)NC(=O)[C@H](CCCCN)NC(=O)[C@H](CCSC)NC(=O)[C@H](CCC(=O)O)NC(=O)[C@H](Cc1ccc(O)cc1)NC(=O)[C@H](CCC(=O)O)NC(=O)[C@H](CC(C)C)NC(=O)[C@H](CC(=O)O)NC(=O)[C@H](CC(C)C)NC(=O)[C@H](Cc1ccccc1)NC(=O)[C@@H](NC(=O)[C@@H](NC(=O)[C@H](CC(N)=O)NC(=O)[C@@H](NC(=O)[C@H](CCC(N)=O)NC(=O)[C@H](CC(=O)O)NC(=O)[C@H](CC(C)C)NC(=O)[C@H](CO)NC(C)=O)[C@@H](C)CC)C(C)C)[C@@H](C)O)C(=O)N[C@@H](CCCCN)C(=O)N[C@@H](CCCCN)C(=O)N[C@@H](CC(C)C)C(=O)N[C@@H](CCC(=O)O)C(=O)N[C@@H](CCC(=O)O)C(=O)N[C@@H](CO)C(=O)N[C@@H](Cc1ccc(O)cc1)C(=O)N[C@H](C(=O)N[C@@H](CC(=O)O)C(=O)N[C@@H](CC(C)C)C(=O)N[C@@H](CCCCN)C(=O)N[C@@H](CCC(=O)O)C(=O)N[C@@H](CC(C)C)C(N)=O)[C@@H](C)CC [EK1] | – | – | > 12500 | > 12500 | > 25000 | none of them at a concentration of 10 or 25 μM showed significant cytotoxic effects | > 25000 | none of them at a concentration of 10 or 25 μM showed significant cytotoxic effects | > 5000 | > 5000 | > 5000 | > 5000 | > 5000 | > 5000 | > 5000 | > 5000 | > 5000 | > 5000 | > 5000 | > 5000 | IC50 (HIV-2ST): > 12500 nM; IC50 (HIV-1NL4-3 Env): > 5000 nM; IC50 (HIV-2ROD): > 12500 nM; IC50 (primary HIV-1 Envs; HIV-1 Env JRFL, subtype B, triplicate, repeated three times, read-out: Cell fusion (IC50±SD)): > 5000 nM; IC50 (primary HIV-1 Envs; [14]): > 5000 nM; IC50 (primary HIV-1 Envs; [15]): > 5000 nM; Complex formation with gp41 HR1-derived peptides N42, N36, N38 by size-exclusion chromatography [1]: could form peptide complexes; IC50 (H7N9 pseudovirus): > 25000 nM |
| albuvirtide | none was found to have inhibitory activity | potently inhibited HIV-1 | – | – | – | – | – | – | – | – | – | – | – | – | – | – | – | – | – | – | – |
| SLDQINVTFLDLEYEMKKLEEAIKKLEESYIDLKEL-GSGSG-PEG4-C(Chol) [EK1C4] | – | – | – | – | – | none of them at a concentration of 10 or 25 μM showed significant cytotoxic effects | – | none of them at a concentration of 10 or 25 μM showed significant cytotoxic effects | – | – | – | – | – | – | – | – | – | – | – | – | – |
